From patent US5726156A, “Cytokine regulatory agents and methods of use in pathologies and conditions associated with altered cytokine levels” (Trega Biosciences, Inc., priority 1995, dated 1998) come the findings set out here.

“And” between values parts separate entries of the source, which are not always exact repeats. Equal entries are not always repeated. Square brackets hold non-standard residues; d marks the D form. Peptide text beside a SMILES is read from it.

Assay [1] concerns arachidonic acid-induced ear swelling. Put plainly: Arachidonic acid-induced ear swelling. Format: in vivo, mice. The note with it: 100 μg/mouse IP 30 min prior to AA; 60 min after AA. As to the method:
Experiments were performed using female Balb/c mice weighing 18-23 grams. Saline or 100 μg EX-2 or EX-3 was administered IP, 30 min prior to topical application of arachidonic acid (AA). A 10 μl pipet was used to apply 10 μl AA solution (100 mg/ml ethanol; Calbiochem-Novabiochem; San Diego Calif.) to the inner and outer surfaces of the right ear of each mouse. Ten μl ethanol, alone, was applied to the inner and outer surface of the left ear of each mouse. Ear thickness was measured with a hand-held spring loaded caliper immediately before and 60 min after AA application. Increase in ear thickness was calculated by subtracting the change observed in the control ear from the change observed in AA-treated ear. The value for each group (saline and control) is the average of the swelling observed in the individual mice in each group. The percent reduction of swelling is based on the swelling observed in the saline control group.

The test system of assay [2] is TNF-α. Put plainly: Reduction of LPS-induced TNF levels in mice (IP dosing). Format: in vivo. The note with it: 150 μg/mouse IP, one min before LPS 5 mg/kg IP. How it is done: Balb/c female mice weighing approximately 20 g were placed into two groups, a control group and a treated group. Five mg/kg of LPS in 0.9% saline was administered by intraperitoneal (IP) injection into the control mice. Mice in the treated group were first injected IP with 30 μg EX-2 or 150 μg EX-3 in saline, then, one min after EX-2 or EX-3 was administered, the mice received LPS as described for the control group.
Blood samples were collected from the orbital sinus of treated and control mice at various times up to four hr after LPS was administered. The plasma was separated by centrifugation at 3000×g for 5 min, then diluted with four volumes of 1× phosphate buffer saline (pH 7.4) containing 1% bovine serum albumin. A 100 μl sample of serum was assayed by ELISA for TNF-α (Genzyme; Cambridge Mass.).
The mean (+/- SEM) TNF-α level in six mice from each group was determined and the percent reduction in TNF levels was calculated.

In assay [3] the test system is Carageenan-induced paw swelling. Briefly: Carageenan-induced paw swelling. The class given is in vivo, mice. The settings on record: 1 μg/mouse; 2 hr time point. How it is done: Carageenan-induced paw swelling was induced using a modification of the methods of Hiltz and Lipton, Peptides 11:979-982 (1990); Vinegar et al., Fed. Proc. 46:118-126 (1987); and Vinegar et al., J. Pharmacol. Expt. Therap. 166:96-103 (1969), each of which is incorporated herein by reference. Briefly, adult female Balb/c mice were anesthetized by IP injection of 7 mg/kg ketoamine and 0.6 mg/kg rompun. Foot pad thickness was measured using a spring loaded micrometer (Swiss Precision Instruments). Foot pad thickness was expressed in units of 1/100 inch. After baseline measurements were obtained, mice were injected into a hind foot pad with either 0.2 ml physiologic saline (control) or varying doses of EX-2 or EX-3 in 0.2 ml saline (treated). The first injection was followed immediately by injection of 0.02 ml of 0.15% K-carageenan (Sigma Chemical Co.; St. Louis, Mo.).
Hind foot pad thickness was measured hourly for six hr, the change in thickness was determined and the percent reduction in swelling due to treatment with EX-2 was calculated.

Assay [4] relates to TNF-α. Briefly: LPS-induced TNF-α levels, oral (gavage) dosing. The note with it: one min before 0.1 mg LPS IP. The class given is in vivo, mice. How it is done: The ability of orally administered cytokine regulatory agents to reduce LPS-induced TNF-α levels also was examined. Balb/c female mice (20 g) were administered 150 μg or 300 μg EX-2, EX-3, EX-5 or EX-6 in 100 μl saline by gavage. Control mice received 100 μl saline, alone. One min later, 0.1 mg LPS was administered by IP injection. Samples were collected and TNF-α levels were determined as described in Example III, above.
The mean TNF-α levels in the mice from each group (n=9-20) was determined and the percent reduction in TNF-α levels was calculated.

Assay [5] has as its system LPS-induced lethality. Put plainly: LPS-induced lethality (IP dosing). The note with it: 11 × 300 μg/mouse IP (3.3 mg), every 4 hr; 0.6 mg LPS. Format: in vivo, mice. How it is done: These experiments were performed based on information reported by Rivier etal., Endocrinology 125:2800-2805 (1989), which is incorporated herein by reference. Adult female Balb/c mice were provided food and water ad libitum. Mice were injected IP every four hr for 40 hr with 30 to 300 μg EX-2, EX-3 or EX-4 in 0.2 ml saline (treated group) or with 0.2 ml saline, alone (control group) (10 mice per group). Immediately following the first injection, 0.6 mg LPS endotoxin in 0.2 ml saline was administered to each mouse. Following LPS injection, EX-2 or saline was administered to the treated mice or the control mice, respectively, every 4 hr for 36 hr.

Assay [6] relates to morphine-induced respiratory depression. Put plainly: Morphine-induced respiratory depression. Format: in vivo, rabbits. The settings on record: 10 + 20 + 20 μg/kg/rabbit iv; end of experiment (80 min). As to the method: Male Shelton rabbits (3-4 kg) were restrained and fitted around the thorax, just behind the front limbs, with a respiration transducer (Model F-RCT; Grass Instruments; Quincy Ma). The transducer was connected to a grass polygraph via an EKG cable. An intravenous line was established for drug administration by cannulating the marginal ear vein using a 25 G butterfly needle.
Rabbit breathing was allowed to stabilize, then morphine sulfate (2 mg/kg in 0.5 ml saline) was administered by intravenous (iv) injection and respiratory rate and depth were monitored for 10 min. A second dose of morphine was administered, then, after 10 min, EX-2 or EX-3 (10 μg/kg in 0.5 ml saline) was administered, iv, and rabbits were monitored for 20 min. Two additional doses of EX-2 or EX-3 (20 μg/kg in 1.0 ml saline) were administered at 20 min intervals, i.e., 40 min and 60 min after the first morphine injection.
Results were calculated as the percent change from baseline values and are expressed as the difference of the mean value of the treated group minus the mean value of the control group at the end of the experiment (80 min).

The subject of assay [7] is LPS-induced fever. Briefly: LPS-induced temperature increase (fever). Format: in vivo, rats. The settings on record: 150 μg/kg IP; 6 hr following LPS injection. As to the method:
Male Wistar rats (45-75 days old) were placed in a temperature controlled room held at 26° C., which is thermoneutral for the normal body temperature of rats, and were maintained in the room with free access to food and water for 24 hr prior to testing. On the morning of the study, rats were marked for identification and weighed. The temperature of each rat was determined by placing the animal in a regulatory cage designed to minimize stress and inserting a temperature probe (YSI probe #402) 3-5 cm into the animal's rectum. The temperature was recorded 15 sec after the reading stabilized. Measurements were repeated 1 hr later to establish a baseline temperature for each rat.
After the baseline temperatures were established, rats were injected IP with saline, IL-1β or LPS endotoxin. Rats then were injected IP with either saline (control) or various concentrations of EX-2, EX-3, or EX-4 (treated). The temperature of the rats was measured every hr for 6 hr and the inhibition by EX-2, EX-3, or EX-4 of the rise in temperature due to IL-1β or LPS was determined.
In addition, treatment with 50 or 150 μg/kg EX-2 inhibited LPS-induced fever by 45% or 52%, respectively, when measured 6 hr following LPS injection. Furthermore, treatment with 150 μg/kg EX-3 or EX-4 inhibited LPS-induced fever by 57% and 52%, respectively (Table II).

The subject of assay [8] is LPS-induced lethality. Put plainly: LPS-induced lethality, oral (gavage) dosing. The class given is in vivo. The settings on record: control mice 0%. How it is done:
The LPS-induced lethality studies were performed based on information reported by Rivier et al., supra, 1989. Adult female Balb/c mice were provided food and water ad libitum. Mice were administered 150 μg or 300 μg EX-2, EX-3, EX-5 or EX-6 in 100 μl saline by gavage every 4 hr for 40 hr (total doses of 1.65 mg and 3.3 mg, respectively). Control mice received 100 μl saline, alone. Immediately following the first dose of cytokine regulatory agent or saline, 0.6 mg LPS in 0.2 ml saline was administered by IP injection.

Regarding `CC(=O)N[C@H](C(=O)N[C@@H](CCC(N)=O)C(=O)N[C@@H](Cc1c[nH]cn1)C(=O)N[C@H](Cc1ccccc1)C(=O)N[C@@H](CCCNC(=N)N)C(=O)N[C@H](Cc1c[nH]c2ccccc12)C(=O)NCC(N)=O)C1CCCCC1` [EX-3, Ac-(cyclohexyl)Gly-Gln-His-(D) Phe-Arg- (D) Trp-Gly-NH2], the “Reduction in arachidonic acid-induced Ear Swelling” value in assay [1] stood at 62%. For the same compound, the “Reduction in TNF levels” value in assay [2] is on record as 56%. Besides, in assay [3], the “Reduction in Carageenan-induced Paw Swelling” value was 49%. Further, the “percent reduction in TNF-α levels, oral dosing” value in assay [4] (150 μg by gavage) stood at 49%; in assay [4] (300 μg by gavage), 40%. Besides, the “Inhibition of LPS-induced Lethality (increase in survival vs control)” value in assay [5] was 86%. For the same compound, the “Reduction in Morphine-induced Respiratory Depression” value in assay [6] came to 65%. Moreover, in assay [7], the “Reduction in LPS-induced Fever” value is 57%.
Turning to `CC(=O)N[C@H](Cc1ccccc1)C(=O)N[C@@H](CCCNC(=N)N)C(=O)N[C@H](Cc1c[nH]c2ccccc12)C(N)=O` [EX-4, Ac- (D) Phe-Arg-(D) Trp-NH2], the “Reduction in TNF levels” value in assay [2] amounted to 53%. Also, the “Inhibition of LPS-induced Lethality (increase in survival vs control)” value in assay [5] is reported as 75%. For the same compound, the “Reduction in LPS-induced Fever” value in assay [7] was 52%.
For `CC(=O)N[C@@H](Cc1c[nH]cn1)C(=O)N[C@H](Cc1ccccc1)C(=O)N[C@@H](CCCNC(=N)N)C(=O)N[C@H](Cc1c[nH]c2ccccc12)C(=O)NCC(N)=O` [EX-5, Ac-His- (D) Phe-Arg- (D) Trp-Gly-NH2] (Ac-H[dF]R[dW]G-NH2), the “percent reduction in TNF-α levels, oral dosing” value in assay [4] (300 μg by gavage) is on record as 44%. In addition, in assay [8] (3.3 mg total (300 μg by gavage every 4 hr for 40 hr)), the “survival after LPS, oral dosing” value was 63% and 44%.
Consider `CC(=O)N[C@@H](Cc1c[nH]cn1)C(=O)N[C@H](Cc1ccccc1)C(=O)N[C@@H](CCCNC(=N)N)C(=O)N[C@H](Cc1c[nH]c2ccccc12)C(N)=O` [EX-6, Ac-His-(D)Phe-Arg-(D)TrP-NH2], for which the “survival after LPS, oral dosing” value in assay [8] (1.65 mg total (150 μg by gavage every 4 hr for 40 hr)) was determined as 68%.
